For one series, the target named is T1, Human CCR5 receptor (Homo sapiens, UniProt P51681).
T1 construct: expressed in transfected cells
Kind of series: Human CCR5 receptor-ligand binding assay (125I RANTES displacement). To be noted: 0.1 nM 125I RANTES, CHO-Gα16-hCCR5 cells, RT 2 h. An excerpt:
Human CCR5 receptor (Genebank ID: 29169292) was cloned into mammalian expression vector, pTarget (Promega). The construct was transfected into CHO-Gα16 cells by using Fugene Reagent (Roche). Clones were selected under antibiotic pressure (G418 and Hygromycin) and sorted 4 times with a fluorescence activates cell sorter and a monoclonal antibody specific for CCR5 receptor (BD Biosciences Pharmigen, Mab 2D7, Cat. No. 555993). The clone with highest expression (100,000 copies per cell) was chosen for the binding assays.
Adherent cells in […] tissue culture flask (˜90% confluent) were harvested using 1 mM EDTA in PBS (phosphate-buffered saline) without Ca^2+ and Mg^2+. Cells were washed twice with PBS containing no Ca^2+ and Mg^2+. CHO-Gα16-hCCR5 cells were then resuspended (1×10^6/ml) in ice cold binding buffer (50 mM HEPES, 1 mM CaCl2, 5 mM MgCl2, 0.5% BSA, 0.05% NaN3, pH 7.24), pH 7.4), supplemented with freshly made 0.5% BSA and 0.05% NaN3.
Eighty μl CHO-Gα16-hCCR5 (1×10^6/ml) cells were added to 96 well plates. All dilutions were made in binding buffer (50 mM HEPES, 1 mM CaCl2, 5 mM MgCl2, 0.5% BSA, 0.05% NaN3, pH 7.24).
The plates were incubated on a cell shaker at RT for 2 h with a final concentration of 0.1 nM ^125I RANTES or ^125I MIP-1α or ^125I MIP-1β. The compound dilutions were made in PBS, 1% BSA. Total reaction volume was 100 μl per well. The test compounds were added to the cells prior to the addition of radioligand.
After incubation, the cells were harvested onto GF/C filter plates using Packard cell harvester. Filters were pretreated with 0.3% PEI/0.2% BSA for 30 min. The filter plate was washed rapidly 5 times with 25 mM HEPES, 500 mM NaCl, 1 mM CaCl2 and 5 mM MgCl2 adjusted to pH 7.1. Plates were dried in oven (70° C.) for 20 min, added with 40 μl scintillation fluid and sealed with Packard TopSeal-A. Packard Top Count was used to measure of the radioactivity for 1 min per well.
Total binding was determined with control wells added with radioisotope and buffer and the non-specific binding was determined using an excess cold RANTES to some of the control wells. Specific binding was determined by subtracting the non-specific form total binding. Results are expressed as the percentage of specific ^125I RANTES binding. IC50 values were determined using varying concentrations of the test ligand in triplicates and the data was analyzed using GraphPad Prism (GraphPad, San Diego, Calif.).

The text below walks through data of patent US7714018B2, “Heterocyclic antiviral compounds” (Roche Palo Alto LLC, priority 2004, dated 2010).

Each structure is given as a SMILES string. Structures can show the parent of a compound that is named as a salt.

T1 sequence (P51681 whole entry): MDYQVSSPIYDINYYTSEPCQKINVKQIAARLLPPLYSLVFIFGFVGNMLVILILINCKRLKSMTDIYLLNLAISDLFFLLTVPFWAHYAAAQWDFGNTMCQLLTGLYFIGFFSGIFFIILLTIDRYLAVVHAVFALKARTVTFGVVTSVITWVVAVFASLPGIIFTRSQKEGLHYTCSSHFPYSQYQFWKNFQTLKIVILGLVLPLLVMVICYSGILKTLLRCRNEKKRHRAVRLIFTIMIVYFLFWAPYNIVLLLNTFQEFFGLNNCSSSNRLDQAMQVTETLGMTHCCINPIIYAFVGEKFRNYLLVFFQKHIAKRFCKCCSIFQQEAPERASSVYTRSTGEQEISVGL

As to `CCOC(=O)c1[nH]c(C)c(S(=O)(=O)N2CC3CN(CCCN(C(=O)C4CCN(C(C)=O)CC4)c4ccc(C)c(Cl)c4)CC3C2)c1C` (stereo not drawn) [II-355], the IC50 at Human CCR5 receptor was determined as 0.0027 µM.

As to `Cc1cccc(C)c1C(=O)N1CC2CN(C(CO)CC(NC(=O)C3CCCC3)c3ccccc3)CC2C1` (stereo not drawn) [Compound I-360, Cyclopentanecarboxylic acid {3-[5-(2,6-dimethyl-benzoyl)-hexahydro-pyrrolo[3,4-c]pyrrol-2-yl]-4-hydroxy-1-phenyl-butyl}-amide], the melting point is 78.9 to 84.9 °C.

Turning to `Cc1nc(OCC(=O)O)nc(C)c1C(=O)N1CC2CN(CC[C@H](NC(=O)C3CCCC3)c3ccccc3)CC2C1` (stereo partly drawn) [Compound I-466], at Human CCR5 receptor, the IC50 amounted to 0.011 µM.

`CC(=O)N1CCC(C(=O)N(CCCN2CC3CN(C(=O)c4c(C)ccnc4C)CC3C2)c2ccc(C)c(Cl)c2)CC1` (stereo not drawn) [II-3, 1-Acetyl-piperidine-4-carboxylic acid (3-chloro-4-methyl-phenyl)-{3-[5-(2,4-dimethyl-pyridine-3-carbonyl)-hexahydro-pyrrolo[3,4-c]pyrrol-2-yl]-propyl}-amide] had a melting point of 91.8 to 96.9 °C. The compound also registered an IC50 on Human CCR5 receptor of 0.0184 µM.

The compound `CC(=O)N1CCC(C(=O)N(CCC(C)N2CC3CN(C(=O)c4c(C)ccnc4C)CC3C2)c2ccc(C)c(Cl)c2)CC1` (stereo not drawn) [II-36, 1-Acetyl-piperidine-4-carboxylic acid (3-chloro-4-methyl-phenyl)-{3-[5-(2,4-dimethyl-pyridine-3-carbonyl)-hexahydro-pyrrolo[3,4-c]pyrrol-2-yl]-butyl}-amide] gave a melting point of 60.9 to 62.4 °C.

As to `Cc1ncnc(C)c1C(=O)N1CC2CN(C(C)C[C@H](NC(=O)C3CCC(F)(F)CC3)c3ccccc3)CC2C1` (stereo partly drawn) [Compound I-449], the melting point was 86.4 to 87 °C. At Human CCR5 receptor, the IC50 was found to be 0.001 µM.

`Cc1ccc(N(CCCN2CC3CN(C(=O)c4c(C)ncnc4C)CC3C2)C(=O)C2CCN(C(=O)C(=O)O)CC2)cc1Cl` (stereo not drawn) [II-303, [4-((3-Chloro-4-methyl-phenyl)-{3-[5-(4,6-dimethyl-pyrimidine-5-carbonyl)-hexahydro-pyrrolo[3,4-c]pyrrol-2-yl]-propyl}-carbamoyl)-piperidin-1-yl]-oxo-acetic acid, hydrochloride salt] had an IC50 on Human CCR5 receptor of 0.102 µM.

In turn, `CC(=O)N1CCC(C(=O)N(CCCN2C[C@@H]3CN(C(=O)c4c(C)cccc4C)C[C@@H]3C2)c2ccc(C)c(Cl)c2)CC1` [II-1, 1-Acetyl-piperidine-4-carboxylic acid (3-chloro-4-methyl-phenyl)-{3-[5-(2,6-dimethyl-benzoyl)-hexahydro-pyrrolo[3,4-c]pyrrol-2-yl]-propyl}] showed a melting point of 58.1 to 65.2 °C. Besides, the IC50 at Human CCR5 receptor was determined as 0.0042 µM.

Compound `Cc1ncnc(C)c1C(=O)N1CC2CN(CCC(NC(=O)C3CCCC3)c3ccccc3)CC2C1` (stereo not drawn) [Compound I-29, Cyclopentanecarboxylic acid {3-[5-(4,6-dimethyl-pyrimidine-5-carbonyl)-hexahydro-pyrrolo[3,4-c]pyrrol-2-yl]-1-phenyl-propyl}-amide] registered a melting point of 48 to 49 °C. This compound gave an IC50 on Human CCR5 receptor of 0.016 µM.

`Cc1ccnc(C)c1C(=O)N1CC2CN(CC[C@H](NC(=O)C3CCCC3)c3ccccc3)CC2C1` (stereo partly drawn) [Compound I-78] gave a melting point of 68.8 to 73.6 °C. Moreover, the IC50 at Human CCR5 receptor came out at 0.037 µM.

On to `Cc1cccc(C)c1C(=O)N1C[C@H]2CN(CCC(NC(=O)C3CCCC3)c3ccccc3)C[C@H]2C1` (stereo partly drawn) [Compound I-3, Cyclopentanecarboxylic acid {3-[5-(2,6-dimethyl-benzoyl)-hexahydro-pyrrolo[3,4-c]pyrrol-2-yl]-1-phenyl-propyl}-amide], for which the melting point lay within 60.9 to 63.9 °C.

The compound `Cc1ccc(N(CCCN2C[C@@H]3CN(C(=O)c4c(C)ccnc4C)C[C@@H]3C2)C(=O)Nc2ccc(Cl)cc2)cc1` [II-203, 3-(4-Chloro-phenyl)-1-{3-[(3aS,6aR)-5-(2,4-dimethyl-pyridine-3-carbonyl)-hexahydro-pyrrolo[3,4-c]pyrrol-2-yl]-propyl}-1-p-tolyl-urea] showed a melting point of 60.5 to 62.5 °C.

`Cc1ncnc(C)c1C(=O)N1CC2CN(C(C)CC(NC(=O)C3CCC(F)(F)CC3)c3ccccc3)CC2C1` (stereo not drawn) [Compound I-448, 4,4-Difluoro-cyclohexanecarboxylic acid {3-[5-(4,6-dimethyl-pyrimidine-5-carbonyl)-hexahydro-pyrrolo[3,4-c]pyrrol-2-yl]-1-phenyl-butyl}-amide] yielded a melting point of 71.3 to 72.9 °C.

`Cc1ccc(N(CCCN2CC3CN(C(=O)c4c(C)cccc4C)CC3C2)C(=O)C2CCS(=O)(=O)CC2)cc1Cl` (stereo not drawn) [II-279] returned a melting point of 101.3 to 102.7 °C. At Human CCR5 receptor, the IC50 was 0.0015 µM.

The compound `Cc1ncnc(C)c1C(=O)N1CC2CN(CCC(NC(=O)C3CCC(F)(F)CC3)c3ccccc3)CC2C1` (stereo not drawn) [Compound I-435, 4,4-Difluoro-cyclohexanecarboxylic acid {3-[5-(4,6-dimethyl-pyrimidine-5-carbonyl)-hexahydro-pyrrolo[3,4-c]pyrrol-2-yl]-1-phenyl-propyl}-amide] showed a melting point of 131.8 to 133.2 °C.

For orientation: IC50 means the concentration at which inhibition is half-maximal. As a reminder, the melting point is the temperature, or range, at which the solid turns liquid.
